Source: ChEMBL document CHEMBL1136845, “Synthesis, biological activity and tubulin binding poses of 1-deoxy-9-(R)-dihydrotaxane analogs” (Bioorg Med Chem Lett, 2009)
In brackets after ≈: the same amount, converted by molar mass.

Legend:
[1] = Inhibition of GTP-[…] tubulin polymerization
A2780 = test: Cytotoxicity against human A2780 cells after 72 hrs by MTT assay; type: functional, cell-based; conditions: A2780, 72 h
A549 = test: Cytotoxicity against human A549 cells after 72 hrs by MTT assay; type: functional, cell-based; conditions: A549, 72 h

SMILES	ED50 [1]	IC50 (A2780)	IC50 (A549)
CC(=O)O[C@H]1C(=O)[C@@]2(C)[C@H]([C@H](OC(=O)c3ccccc3)[C@]3(O)C[C@H](OC(=O)[C@H](O)[C@@H](NC(=O)c4ccccc4)c4ccccc4)C(C)=C1C3(C)C)[C@]1(OC(C)=O)CO[C@@H]1C[C@@H]2O [PACLITAXEL]	520 nM	0.13 ng/mL (≈ 0.152 nM)	0.29 ng/mL (≈ 0.34 nM)
CC(=O)O[C@@]12CO[C@@H]1C[C@H](O)[C@]1(C)[C@@H]2[C@H](OC(=O)c2ccccc2)[C@@H]2C[C@H](OC(=O)[C@H](O)[C@@H](NC(=O)c3ccccc3)c3ccccc3)C(C)=C([C@H]3OC(C)(C)O[C@@H]31)C2(C)C	5200 nM	1.54 ng/mL (≈ 1.84 nM)	2.87 ng/mL (≈ 3.42 nM)
CC(=O)O[C@@]12CO[C@@H]1C[C@H](O)[C@]1(C)[C@@H]2[C@H](OC(=O)c2ccccc2)[C@@H]2C[C@H](OC(=O)[C@H](O)[C@@H](NC(=O)c3ccccc3)c3ccccc3)C(C)=C([C@@H](O)[C@@H]1O)C2(C)C	1900 nM	0.11 ng/mL (≈ 0.138 nM)	0.18 ng/mL (≈ 0.226 nM)
